# According to patent US12428405B2, “Chalcone-based chemotherapeutic compound for triple negative breast cancer” (QATAR UNIVERSITY, priority 2019, dated 2025):
# Values joined by “and” are separate entries in the source; they are usually repeats but may differ in a detail not shown here. Equal values may be shown once. “Also recorded” adds a separate entry of the source.
# Legend:
# tubulin = assay: Cell free tubulin polymerization assay; assay type: biochemical; settings: N=1×2, colchicine and paclitaxel as controls
# Protocol: The effect of compound 14 on tubulin polymerization dynamics was assessed using the cell free Cytoskeleton tubulin polymerization assay kit, Version 8.3 (Cytoskeleton, Inc., USA). The experiment was conducted based on the manufacturer's recommendations. colchicine was used as a depolymerizing control while paclitaxel was used as a polymerizing control. Briefly, stock solutions of 10 μM of the compounds and controls were prepared in general tubulin buffer. Then, 10 μl of each solution was added in duplicates in half area 96-well plate prewarmed at 37° C. It was subsequently incubated at 37° C. for 2 minutes. Tubulin solution was prepared and 100 μl of it was added to each of the prewarmed wells of the compounds. The plate was immediately placed at a plate reader set up at kinetic modes and 37° C. temperature. Recording was conducted every minute for 60 minutes at 340 nm Absorbance.
# [1] = Two-week safety and tolerability of the dose before inoculation; settings: 10 mg/kg intraperitoneally for two weeks; n=5
# [2] = test system: MDA-MB-231 xenografted nude mice; assay: In vivo tumor growth, xenograft model
# SK-BR-3 = assay: Radius cell migration assay; assay type: cell-based; settings: Homo sapiens, 24 hours of treatment, 5 concentrations, three independent experiments, read-out: Migratory IC50 SK-BR-3
# Protocol: (§1) For MCF-7 and SK-BR-3 cell lines, migration testing was performed using the Radius™ Cell Migration Assay Kit (Cell Biolabs, Inc., USA) and migration was quantified based on the change in wound area.
# MCF-7 = assay: Radius cell migration assay; assay type: cell-based; settings: Homo sapiens, MCF7; 24 hours of treatment; 5 concentrations; three independent experiments; read-out: Migratory IC50 MCF-7
# Protocol: as §1
# [3] = 10 mg/kg i.p., three times per week, 45 days
structure (smiles),measurement,setting,value
"COc1cccc(C(=O)/C=C/c2ccc(N(CCCl)CCCl)cc2)c1 [Compound 14, (E)-3-(4-(Bis(2-chloroethyl)amino)phenyl)-1-(3-methoxyphenyl) prop-2-en-1-one]",effect on tubulin polymerization (in words),tubulin,"inhibited with an effect comparable to colchicine; also recorded: comparable to tubulin desterilizing agent, colchicine"
same,"clinical observations, tolerability (in words)",[1],"did not show any changes in the mice food intake, weights, or shape"
same,day on which the tumor in the treated group started to grow,"[2]; 10 mg/kg i.p., three times per week",24 days
same,clinical toxicity to treated animals (in words),[2]; [3],no notable clinical toxicity
same,mice health and weight (in words),[2]; [3],did not affect the mice health nor it had induced any changes to the mice weight
same,inhibition in tumor growth as compared to the placebo,"[2]; 10 mg/kg i.p., three times per week, day 45, n=5",46.41±0.71% and 46.41%
same,survival rate of the mice,[2]; during the 45 days,100%
same,tumor volume,"[2]; treated mice, day 45, n=5",1350±1350 mm^3
same,tumor weight,"[2]; treated mice, day 45, n=5",0.88±0.71 gm
same,IC50,SK-BR-3,2790 ± 450 nM
same,IC50,MCF-7,2440 ± 390 nM
